Test results reported in a melting point compilation (Tetko et al.).
Residues, ends and D or L forms follow the SMILES beside them. *: point of attachment. Boc = CC(C)(C)OC(=O)*; Bn = c1ccc(C*)cc1

With CCCCCCCCCCCCCCCC(=O)OC(CCCCCCCCCCCCCC)C(=O)N[C@H](C(=O)N[C@@H](CCC(=O)OCc1ccccc1)C(=O)OCc1ccccc1)C(C)C (stereo partly drawn) the melting point was 65 °C. In the case of O=C(Cc1cc(I)c(Oc2cc(I)c(OCC3CO3)c(I)c2)c(I)c1)OCC1CO1 (stereo not drawn), the melting point is reported as 116 °C. Molecule CN1C(C)(C)CC2(CC1(C)C)NC(=O)N(CC(O)COC(=O)CCCCCCCCCCC(=O)OCC(O)CN1C(=O)NC3(CC(C)(C)N(C)C(C)(C)C3)C1=O)C2=O (stereo not drawn) has a melting point of 53 to 57 °C. Molecule FC(F)(F)c1ccc(Cl)nc1Cl has a melting point of 6 °C. Molecule CC1(C)CC(C(O)CNc2nc(NCc3ccc(CNc4nc(NCC(O)C5CC(C)(C)NC(C)(C)C5)nc(NCC(O)C5CC(C)(C)NC(C)(C)C5)n4)cc3)nc(NCC(O)C3CC(C)(C)NC(C)(C)C3)n2)CC(C)(C)N1 (stereo not drawn) has a melting point of 151 to 156 °C. In the case of CC[C@H](C)[C@H](NC(=O)OCC1c2ccccc2-c2ccccc21)C(=O)N[C@@H](Cc1ccc(OC(C)(C)C)cc1)C(=O)N[C@@H](C)C(=O)NCc1c(OC)ccc2c1Oc1c(ccc(OC)c1CC(=O)OCc1ccccc1)C2(C)C, the melting point is reported as 218 to 220 °C. O=[N+]([O-])c1ccccc1N1CCc2cc(Br)ccc21 showed a melting point of 112 to 114 °C. CC(C)[C@@H](NC(=O)[C@@H](CSC(c1ccccc1)(c1ccccc1)c1ccccc1)NC(=O)[C@@H](C)NC(=O)C[C@H](O)/C=C/CCSC(c1ccccc1)(c1ccccc1)c1ccccc1)C(=O)NCC(=O)O gave a melting point of 191 to 193 °C. F[Si](c1ccccc1)(c1ccccc1)c1ccccc1 showed a melting point of 64 °C. O=C1C(COCc2ccccc2)N(Cc2ccccc2)CCN(Cc2ccccc2)C(COCc2ccccc2)C(=O)N(Cc2ccccc2)CCN1Cc1ccccc1 (stereo not drawn) showed a melting point of 86 to 87 °C. Work on Cc1cc(Cn2nnn(-c3cc(C(F)(F)F)cc(C(F)(F)F)c3)c2=O)ccc1N(C(=O)c1c(I)cccc1C(N)=O)C(C)(C)CS(C)=O (stereo not drawn) yielded a melting point of 165 to 171 °C. CCO/N=C(\C)[C@H]1CC[C@H]2[C@@H]3CCC4=CC(=O)CC[C@]4(C)[C@H]3CC[C@]12C gave a melting point of 127 to 129 °C. Work on CC(C)[C@H](NC(=O)N(C)Cc1ccccn1)C(=O)N[C@@H](Cc1ccccc1)C[C@H](OC(=O)CN(C)C)[C@H](Cc1ccccc1)NC(=O)[C@@H](NC(=O)N(C)Cc1ccccn1)C(C)C yielded a melting point of 109 to 111 °C. COc1cc([N+](=O)[O-])cc(C(=O)C2CCCN(C(=O)c3cc([N+](=O)[O-])cc(OC)c3OC)NNN(C(=O)c3cc([N+](=O)[O-])cc(OC)c3OC)CCCC(C(=O)c3cc([N+](=O)[O-])cc(OC)c3OC)CC2)c1OC (stereo not drawn) gave a melting point of 232 to 235 °C. N#Cc1ccc(C=Cc2ccc(OCc3ccc4ccccc4n3)cc2)cc1 gave a melting point of 116 to 118 °C. For CCCCCc1nc(C)c(C(=O)OCC)n1Cc1ccc2oc(-c3ccccc3-c3nnn(C(c4ccccc4)(c4ccccc4)c4ccccc4)n3)c(Br)c2c1, the melting point was 89 to 90 °C. For C=C(C)C(=O)OCCCCCCCCCCCOc1ccc(-c2nc(-c3ccccc3)nc(-c3ccc(OCCCCCCCCCCCOC(=O)C(=C)C)cc3O)n2)c(O)c1, the melting point was 68.3 °C. COc1cc2c3c(ccc4c5ccc6c7c(cc(OC)c(c1c34)c75)-c1ccccc1C6C#C[Si](C(C)C)(C(C)C)C(C)C)C(C#C[Si](C(C)C)(C(C)C)C(C)C)c1ccccc1-2 (stereo not drawn) showed a melting point of 295 to 298 °C. In the case of COc1ccc(C(=CC2(C=C(c3ccc(OC)cc3)c3ccc(N4CCCC4)cc3)OC(=O)c3c(Cl)c(Cl)c(Cl)c(Cl)c32)c2ccc(N3CCCC3)cc2)cc1 (stereo not drawn), the melting point is reported as 159 to 161 °C. Work on C=CCOC1OC(CO)C(O)C(OC(=O)CC(CCCCCCCCCCC)OCc2ccccc2)C1NC(=O)CC(CCCCCCCCCCC)OCc1ccccc1 (stereo not drawn) yielded a melting point of 80 to 82 °C. COC(=O)C(C)NC(=O)C(COCc1ccccc1)NC(=O)C(Cc1ccc(OCc2ccccc2)cc1)NC(=O)C(Cc1c[nH]c2ccccc12)NC(=O)OC(C)(C)C (stereo not drawn) (Boc-WY(Bn)S(Bn)A-OMe; configuration not given here) gave a melting point of 178 to 182 °C. With O=C1CCc2cc(O)c(I)cc21 the melting point was 114 to 115 °C. In the case of CC(C)n1c(CC[C@@H](O)C[C@@H](O)CC(=O)O)c(-c2ccc(F)cc2)c(-c2ccccc2)c1C(=O)NCc1cccc(C(=O)O)c1, the melting point is reported as 140 to 141 °C.
